How the values were obtained:
Src = target: T1, Src (Homo sapiens, UniProt P12931); assay: Chemiluminescent kinase assay; format: biochemical; conditions: ATP at Km
T1 construct: His (N); purchased Upstate Biotech

EGFR = target: T2, EGFR (Homo sapiens, UniProt P00533); assay: Mechanism of action study / Ki determination; format: biochemical
T2 construct: residues H672-A1210 of human EGFR, Proqinase; purchased Proqinase
Experimental: Enzymatic activity was measured by standard methods after dilution of the enzyme-inhibitor complex.

Histamine, H3 = target: T3, Histamine, H3 (Homo sapiens, UniProt Q9Y5N1); assay: NovaScreen assay; format: binding; conditions: read-out: Inhibition, 10 μM XL-647
T3 construct: NovaScreen

Sodium, Site 2 = assay: NovaScreen assay; format: binding
NOS (Neuronal-Binding) = target: T4, NOS (Neuronal-Binding) (Homo sapiens, UniProt P29475); assay: NovaScreen assay; conditions: read-out: Inhibition, 10 μM XL-647
T4 construct: NovaScreen

[1] = target: T5, Monoamine Oxidase A, Peripheral (Rattus norvegicus, UniProt P21396); assay: NovaScreen assay; format: biochemical; conditions: read-out: Inhibition, 10 μM XL-647
T5 construct: NovaScreen

A431 tumors = assay: Immunohistochemical analysis of A431 tumors; format: in vivo, mouse; conditions: 14-day dosing
Experimental: For immunohistochemical analysis of H1975, MDA-MB-231 and other xenografts, tumors were excised after euthanasia and fixed in zinc fixative (BD Biosciences) for 48 h before being processed into paraffin blocks. Serial sections at 5 μm were obtained from the area of largest possible surface for each tumor and stained using standard methods. The following antibodies were used: Ki67 (SP6; Labvision), CD31 (MECA.32; BD Biosciences), pERK^Thr202/Tyr204 (phospho-p44/42 mitogen-activated protein kinase; Cell Signaling Technology), pAKT^Ser473 (Cell Signaling Technology), and pEGFR^Tyr1068 (Cell Signaling Technology). For immunofluorescent staining, sections were then incubated with Alexa 594-conjugated goat anti-rabbit secondary antibody (Invitrogen) and mounted in Fluorescent Mounting Medium (DAKO) containing 4′,6-diamidino-2-phenylindole (Molecular Probes) as a nuclear counterstain. Fluorescent staining was visualized using a Zeiss Axiolmager and digitally captured using a Zeiss high-resolution camera coupled to AxioVision image analysis software. Two to three nonoverlapping representative fields were captured at ×200 or ×400 magnification depending on histologic readout and quantified using the integrated morphometric analysis functions in Metamorph software (Universal Imaging Corp.). Apoptotic cells were detected using terminal deoxynucleotidyl transferase-mediated dUTP nick end labeling in situ cell death detection kit according to the manufacturer's instructions (Roche Diagnostics GmbH).
CD31-positive tumor vessels, Ki67-positive proliferating cells, and pERK staining in each tumor section were identified and quantified using the integrated morphometric analysis functions in the ACIS automatic cellular imaging system (Clarient, Inc.) and reviewed by a blinded observer. Number of CD31-positive vessels were identified across 5 to 10 randomly chosen fields of equal size at ×100 magnification in viable tumor tissue and calculated as number of vessels per square millimeter for each tumor, averaged for each treatment group, and compared with vehicle-treated controls. Percentage Ki67-positive cells were calculated as the ratio between Ki67-positive cells divided by the total number of cells identified across 5 to 10 randomly chosen fields of equal size in viable tumor tissue. The results for each tumor and treatment group were averaged and compared with vehicle-treated controls. The level of pERK staining was determined as described above and calculated as the ratio of antibody staining divided by the total number of cells identified, averaged for each treatment group, and compared with vehicle-treated controls.

total HER2/ErbB2 = target: T6, total HER2/ErbB2 (Homo sapiens, UniProt P04626); assay: In vivo receptor level, BT474 xenografts; parameters: species or system mouse
T6 construct: endogenous in cells; host or cells: BT474 tumour xenografts in mice (per the earlier reading)

p-Y-VEGFR2/KDR = target: T7, p-Y-VEGFR2/KDR (Mus musculus, UniProt P35918); assay: In vivo receptor phosphorylation, murine lung; conditions: read-out: Estimated IC50 (plasma concentration)
T7 construct: from tissue; host or cells: murine lung

[2] = format: in vitro ADME; conditions: human
[3] = Clinical Study XL-647-001 (Phase 1, Intermittent 5&9 schedule); conditions: human, in vivo
Experimental: (§1) Enrollment is complete, and all subjects have been off study as of 31 May 2007. Subjects initially received a powder in bottle (PIB) formulation using mass-based dosing. […] The final cohort received a fixed dose of 350 mg in a tablet formulation.

[4] = tested on: subjects with advanced solid tumors; assay: as above
Experimental: as §1

clinical = conditions: human, in vivo
EGFR WT (pCMV/Lx-1) = EGFR WT (pCMV/Lx-1) (Homo sapiens, UniProt P00533); assay: EGFR phosphorylation ELISA in transfected Lx-1 cells
Excerpt: (§2) Lx-1 cells were used because they lack background EGFR activity. A clone corresponding to the longest EGFR isoform (Genbank accession no. NM_005228.3/NP_005219.2 #21-176, Upstate Biotechnology) was used as a template to produce two mutant EGFR genes (coding for L858R and L861Q) by site-directed mutagenesis. The WT and the two sequence-verified mutants were transferred to a COOH-terminal Flag-tagged retroviral cytomegalovirus promoter-driven mammalian expression vector. The two Tet-On expression vectors, EGFR WT (Tet-On) and EGFRvIII (Tet-On), which were COOH-terminally Flag tagged, were generously provided by Dr. Abhijit Guha (University of Toronto, Toronto, Ontario, Canada).
(§3) Transient transfections of Lx-1 cells were done using Lipofectamine 2000 (Invitrogen) according to the manufacturer's protocol. For transfections of the WT, L858R, and L861Q constructs, 1 μg plasmid DNA was used for each transfection (each well of a 12-well plate). […]
(§4) For the EGFR phosphorylation ELISA, Reacti-Bind streptavidin-coated plates (Pierce) were coated with 2 μg/mL biotin-conjugated anti-Flag antibody (Sigma). […] Horseradish peroxidase activity was determined by reading the plates in a Victor2 plate reader following addition of the ELISA Femto substrate.

EGFR L861Q (pCMV/Lx-1) = EGFR L861Q (pCMV/Lx-1) (Homo sapiens, UniProt P00533, L861Q); assay: as above
Excerpt: as §2, §3, §4

KDR = KDR (Homo sapiens, UniProt P35968); assay: Luciferase-coupled chemiluminescence kinase assay; format: biochemical; parameters: residues D807-V1356 of human KDR, Proqinase; purchased Proqinase; conditions: ATP at Km
KDR, sequence (P35968 807-1356): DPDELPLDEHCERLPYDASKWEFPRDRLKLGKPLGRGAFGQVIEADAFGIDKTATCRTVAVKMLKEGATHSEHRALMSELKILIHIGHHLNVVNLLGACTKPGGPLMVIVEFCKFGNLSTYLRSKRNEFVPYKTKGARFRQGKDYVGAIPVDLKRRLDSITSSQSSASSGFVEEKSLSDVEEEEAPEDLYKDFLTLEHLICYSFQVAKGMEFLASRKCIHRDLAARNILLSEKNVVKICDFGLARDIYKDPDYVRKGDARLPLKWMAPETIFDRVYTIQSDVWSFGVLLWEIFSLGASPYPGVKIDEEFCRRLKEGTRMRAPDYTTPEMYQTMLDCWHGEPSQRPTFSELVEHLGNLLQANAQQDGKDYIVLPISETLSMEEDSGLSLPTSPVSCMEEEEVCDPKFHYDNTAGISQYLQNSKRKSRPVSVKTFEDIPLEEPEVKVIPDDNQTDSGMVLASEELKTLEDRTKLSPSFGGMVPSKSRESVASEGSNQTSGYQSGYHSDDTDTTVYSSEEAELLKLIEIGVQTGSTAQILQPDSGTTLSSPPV
Experimental: Dose-response experiments were done using 10 different inhibitor concentrations in 384-well microtiter plates. The ATP concentration used for each assay was equivalent to the Km for each kinase.
A Luciferase-coupled chemiluminescence assay was used to measure EGFR and KDR (VEGFR2) activity. Kinase activity was measured as the percentage of ATP consumed following the kinase reaction using luciferase-luciferin-coupled chemiluminescence. Reactions were conducted in 384-well white, medium-binding microtiter plates (Greiner). […] The reaction mixture was incubated at room temperature for 4 h. Following the kinase reaction, a 20 μL aliquot of Kinase Glo (Promega) was added and luminescence signal was measured using a Victor2 plate reader (Perkin-Elmer). Total ATP consumption was limited to 50%.

T2 sequence (P00533 672-1210): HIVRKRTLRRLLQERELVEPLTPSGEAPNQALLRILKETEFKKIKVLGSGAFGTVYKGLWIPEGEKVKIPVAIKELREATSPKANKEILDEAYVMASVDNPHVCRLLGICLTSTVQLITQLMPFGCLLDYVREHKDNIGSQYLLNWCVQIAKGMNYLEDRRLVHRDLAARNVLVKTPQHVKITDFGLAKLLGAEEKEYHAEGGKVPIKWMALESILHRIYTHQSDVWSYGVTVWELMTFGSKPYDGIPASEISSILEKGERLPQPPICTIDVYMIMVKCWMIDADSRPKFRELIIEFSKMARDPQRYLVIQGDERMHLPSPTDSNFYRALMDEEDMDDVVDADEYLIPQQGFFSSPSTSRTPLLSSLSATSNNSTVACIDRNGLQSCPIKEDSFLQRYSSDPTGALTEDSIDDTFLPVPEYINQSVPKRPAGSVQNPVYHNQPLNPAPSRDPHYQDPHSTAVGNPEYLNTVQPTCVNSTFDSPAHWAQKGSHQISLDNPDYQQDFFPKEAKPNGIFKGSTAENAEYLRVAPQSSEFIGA
T3 sequence (Q9Y5N1 whole entry): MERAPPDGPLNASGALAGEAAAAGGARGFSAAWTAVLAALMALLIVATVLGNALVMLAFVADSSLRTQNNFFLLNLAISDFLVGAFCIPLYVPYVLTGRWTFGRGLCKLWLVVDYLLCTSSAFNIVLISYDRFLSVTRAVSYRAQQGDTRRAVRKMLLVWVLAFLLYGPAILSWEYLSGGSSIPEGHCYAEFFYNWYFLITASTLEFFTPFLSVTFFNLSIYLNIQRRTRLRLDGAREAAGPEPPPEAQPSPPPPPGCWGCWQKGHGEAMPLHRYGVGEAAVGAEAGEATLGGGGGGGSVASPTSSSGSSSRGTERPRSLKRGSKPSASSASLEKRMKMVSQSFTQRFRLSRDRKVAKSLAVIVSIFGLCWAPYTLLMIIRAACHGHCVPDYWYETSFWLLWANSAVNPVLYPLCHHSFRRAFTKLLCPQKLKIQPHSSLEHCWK
EGFR L861Q (pCMV/Lx-1), sequence (P00533 25-1210 L861Q): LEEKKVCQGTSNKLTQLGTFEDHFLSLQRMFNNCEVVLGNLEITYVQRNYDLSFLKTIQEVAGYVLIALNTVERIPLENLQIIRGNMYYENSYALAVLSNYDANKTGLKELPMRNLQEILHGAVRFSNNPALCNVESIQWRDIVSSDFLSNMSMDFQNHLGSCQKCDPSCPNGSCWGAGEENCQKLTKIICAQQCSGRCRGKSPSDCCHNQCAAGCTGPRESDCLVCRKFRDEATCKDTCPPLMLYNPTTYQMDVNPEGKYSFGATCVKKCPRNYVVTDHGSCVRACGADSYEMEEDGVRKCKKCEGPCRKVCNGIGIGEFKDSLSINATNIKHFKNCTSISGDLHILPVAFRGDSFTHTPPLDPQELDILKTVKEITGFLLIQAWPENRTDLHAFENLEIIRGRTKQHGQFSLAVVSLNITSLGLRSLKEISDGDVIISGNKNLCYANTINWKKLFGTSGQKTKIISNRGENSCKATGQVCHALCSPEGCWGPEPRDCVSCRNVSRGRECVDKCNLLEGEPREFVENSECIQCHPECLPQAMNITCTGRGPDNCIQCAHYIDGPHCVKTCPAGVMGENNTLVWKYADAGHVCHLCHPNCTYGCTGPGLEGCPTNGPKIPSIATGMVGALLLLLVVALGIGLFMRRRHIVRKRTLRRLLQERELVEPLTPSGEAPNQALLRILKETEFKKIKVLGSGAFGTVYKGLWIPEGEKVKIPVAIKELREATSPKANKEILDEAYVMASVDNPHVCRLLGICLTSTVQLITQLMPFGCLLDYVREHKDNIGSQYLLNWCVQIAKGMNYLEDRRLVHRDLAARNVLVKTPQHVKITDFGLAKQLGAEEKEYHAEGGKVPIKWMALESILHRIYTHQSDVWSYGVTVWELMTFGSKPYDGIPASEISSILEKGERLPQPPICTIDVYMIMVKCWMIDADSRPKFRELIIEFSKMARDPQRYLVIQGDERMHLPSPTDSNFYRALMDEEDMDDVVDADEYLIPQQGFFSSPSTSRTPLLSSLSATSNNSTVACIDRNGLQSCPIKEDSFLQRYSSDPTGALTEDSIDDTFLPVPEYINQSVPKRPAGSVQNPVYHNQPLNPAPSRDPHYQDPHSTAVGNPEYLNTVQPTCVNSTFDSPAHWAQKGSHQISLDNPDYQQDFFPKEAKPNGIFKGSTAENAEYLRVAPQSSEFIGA
EGFR WT (pCMV/Lx-1), sequence (P00533 25-1210): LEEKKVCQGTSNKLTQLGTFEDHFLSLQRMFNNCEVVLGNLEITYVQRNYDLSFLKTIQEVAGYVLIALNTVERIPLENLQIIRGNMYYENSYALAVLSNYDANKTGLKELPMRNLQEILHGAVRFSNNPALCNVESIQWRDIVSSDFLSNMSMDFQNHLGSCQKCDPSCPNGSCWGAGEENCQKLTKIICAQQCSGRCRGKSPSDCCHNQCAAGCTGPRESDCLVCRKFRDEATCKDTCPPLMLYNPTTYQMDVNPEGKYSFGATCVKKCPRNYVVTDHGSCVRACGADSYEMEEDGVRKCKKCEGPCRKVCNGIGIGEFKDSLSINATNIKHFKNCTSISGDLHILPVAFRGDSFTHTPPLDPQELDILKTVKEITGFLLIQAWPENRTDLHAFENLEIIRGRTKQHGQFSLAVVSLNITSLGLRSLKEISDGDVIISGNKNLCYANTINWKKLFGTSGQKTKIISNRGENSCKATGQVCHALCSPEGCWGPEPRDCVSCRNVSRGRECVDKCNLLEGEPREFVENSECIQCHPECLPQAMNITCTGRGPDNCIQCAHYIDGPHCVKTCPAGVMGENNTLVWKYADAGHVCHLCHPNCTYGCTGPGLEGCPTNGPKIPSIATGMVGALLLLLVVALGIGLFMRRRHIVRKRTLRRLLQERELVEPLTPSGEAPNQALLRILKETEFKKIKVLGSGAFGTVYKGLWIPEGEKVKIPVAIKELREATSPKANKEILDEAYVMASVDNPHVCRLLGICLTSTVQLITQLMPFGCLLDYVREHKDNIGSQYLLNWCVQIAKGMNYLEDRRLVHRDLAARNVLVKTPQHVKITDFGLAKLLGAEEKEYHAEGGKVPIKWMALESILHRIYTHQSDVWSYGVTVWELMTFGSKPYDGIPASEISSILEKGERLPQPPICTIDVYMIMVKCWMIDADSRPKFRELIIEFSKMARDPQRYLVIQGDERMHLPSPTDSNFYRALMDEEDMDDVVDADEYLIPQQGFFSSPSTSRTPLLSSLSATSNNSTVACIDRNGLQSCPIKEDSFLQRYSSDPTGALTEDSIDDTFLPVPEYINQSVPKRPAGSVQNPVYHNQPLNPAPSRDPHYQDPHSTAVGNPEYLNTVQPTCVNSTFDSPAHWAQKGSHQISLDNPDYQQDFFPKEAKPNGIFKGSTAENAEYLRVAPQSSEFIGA
T1 sequence (P12931 whole entry): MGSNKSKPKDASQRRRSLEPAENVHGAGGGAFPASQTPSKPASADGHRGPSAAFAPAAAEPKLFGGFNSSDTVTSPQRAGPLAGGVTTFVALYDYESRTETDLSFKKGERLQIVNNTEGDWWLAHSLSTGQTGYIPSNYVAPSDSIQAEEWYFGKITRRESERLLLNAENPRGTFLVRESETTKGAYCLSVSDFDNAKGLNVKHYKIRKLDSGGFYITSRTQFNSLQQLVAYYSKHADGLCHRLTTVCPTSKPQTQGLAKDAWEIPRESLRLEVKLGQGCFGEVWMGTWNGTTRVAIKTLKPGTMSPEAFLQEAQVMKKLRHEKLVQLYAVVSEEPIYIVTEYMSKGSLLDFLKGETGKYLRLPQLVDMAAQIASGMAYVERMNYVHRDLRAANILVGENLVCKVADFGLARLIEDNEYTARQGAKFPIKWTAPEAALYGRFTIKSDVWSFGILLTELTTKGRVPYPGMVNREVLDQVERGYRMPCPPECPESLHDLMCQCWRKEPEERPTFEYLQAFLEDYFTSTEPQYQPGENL
T5 sequence (P21396 whole entry): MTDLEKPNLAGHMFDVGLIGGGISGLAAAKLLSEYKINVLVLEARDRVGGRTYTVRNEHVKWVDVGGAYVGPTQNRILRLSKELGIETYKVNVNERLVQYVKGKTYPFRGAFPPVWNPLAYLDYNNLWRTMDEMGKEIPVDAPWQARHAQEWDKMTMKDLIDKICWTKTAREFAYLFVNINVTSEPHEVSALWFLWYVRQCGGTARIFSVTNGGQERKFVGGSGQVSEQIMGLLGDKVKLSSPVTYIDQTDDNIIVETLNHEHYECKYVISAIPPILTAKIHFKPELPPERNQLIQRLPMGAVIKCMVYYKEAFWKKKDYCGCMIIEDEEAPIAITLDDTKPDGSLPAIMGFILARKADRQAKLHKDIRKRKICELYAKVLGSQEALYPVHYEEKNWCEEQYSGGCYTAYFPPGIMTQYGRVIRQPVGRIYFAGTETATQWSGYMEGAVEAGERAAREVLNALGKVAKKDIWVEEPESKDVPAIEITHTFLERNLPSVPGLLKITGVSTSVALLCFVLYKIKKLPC

SMILES: COc1cc2c(Nc3ccc(Cl)c(Cl)c3F)ncnc2cc1OC[C@@H]1C[C@@H]2CN(C)C[C@@H]2C1 [XL-647, N-(3,4-dichloro-2-fluorophenyl)-7-({[(3aR,5r,6aS)-2-methyloctahydrocyclopenta[c]pyrrol-5-yl]methyl}oxy)-6-(methyloxy)quinazolin-4-amine]
- IC50 (Src): 10.3 ± 2 nM
- ATP-Competitive (EGFR): Yes
- Ki (EGFR): 0.05 nM
- Reversible (EGFR): Yes
- inhibition at 10 µM (Histamine, H3): 38.6%
- Inhibition, 10 μM XL-647 (Sodium, Site 2): 88.06%
- inhibition at 10 µM (NOS (Neuronal-Binding)): 16.8%
- inhibition at 10 µM [1]: 1.66%
- CD31 Analysis % Reduction (A431 tumors; 10 mg/kg): 33.5%
- CD31 Analysis MVC (A431 tumors; 10 mg/kg): 18.6
- Ki67 Expression % Reduction (A431 tumors; 10 mg/kg): 53.3%
- Ki67 Expression % of Cells (A431 tumors; 10 mg/kg): 17.6%
- Necrosis % Increase (A431 tumors; 10 mg/kg): 20.7%
- CD31 Analysis % Reduction (A431 tumors; 30 mg/kg): 43.2%
- CD31 Analysis MVC (A431 tumors; 30 mg/kg): 15.9
- Ki67 Expression % Reduction (A431 tumors; 30 mg/kg): 67.2%
- Ki67 Expression % of Cells (A431 tumors; 30 mg/kg): 12.3%
- Necrosis % Increase (A431 tumors; 30 mg/kg): 26.5%
- CD31 Analysis % Reduction (A431 tumors; 100 mg/kg): 87.3%
- CD31 Analysis MVC (A431 tumors; 100 mg/kg): 3.6
- Ki67 Expression % Reduction (A431 tumors; 100 mg/kg): 82.6%
- Ki67 Expression % of Cells (A431 tumors; 100 mg/kg): 6.5%
- Necrosis % Increase (A431 tumors; 100 mg/kg): 61.7%
- Single Dose Duration of Action (100 mg/kg, >50% inhibition) (total HER2/ErbB2): >96 h
- IC50 (p-Y-VEGFR2/KDR): 1200 nM
- protein bound [2]: 93-97.5%
- MTD [3]: 4.68 mg/kg
- MTD converted to a fixed dose ([4]; Intermittent 5&9 schedule): 350 mg
- subjects with unconfirmed partial response (PR) ([4]; NSCLC, Day 228): one
- other subjects with prolonged stable disease lasting greater than 3 months ([4]; intermittent schedule): 14 subjects
- half-life (clinical): ~60 h
- Tmax (clinical; po): ~4 h
- IC50 (EGFR WT (pCMV/Lx-1)): 12 nM
- IC50 (EGFR L861Q (pCMV/Lx-1)): 10 nM
- IC50 (KDR): 1.5 ± 0.2 nM

Reference: patent US9364479B2, “Use of a receptor-type kinase modulator for treating polycystic kidney disease” (SYMPHONY EVOLUTION, INC., priority 2010, dated 2016)
